Laboratory results from the kinase profiling compilation of Christmann-Franck et al. (2016).

Columns and labels:
Experiment in all cases: Caliper, Mobility shift assay off-chip
[1] = biological target: AURKB (human) (UniProt Q96GD4)
[2] = biological target: BRSK2 (human) (UniProt Q8IWQ3)
[3] = biological target: CAMK4 (human) (UniProt Q16566)
[4] = biological target: CDK9 (human) (UniProt P50750)
[5] = biological target: CHUK (human) (UniProt O15111)
[6] = biological target: CSNK1A1 (human) (UniProt P48729)
[7] = biological target: EEF2K (human) (UniProt O00418)
[8] = biological target: EPHA1 (human) (UniProt P21709)
[9] = biological target: FGFR2 (human) (UniProt P21802)
[10] = biological target: FGFR3 (human) (UniProt P22607)
[11] = biological target: HIPK1 (human) (UniProt Q86Z02)
[12] = biological target: ITK (human) (UniProt Q08881)
[13] = biological target: JAK2 JH1 JH2 (human) (UniProt O60674)
[14] = biological target: JAK3 JH1 JH2 (human) (UniProt P52333)
[15] = biological target: KIT (human) (UniProt P10721); details: compound 0.2 µM
[16] = biological target: MAPK1 (human) (UniProt P28482)
[17] = biological target: MAPK12 (human) (UniProt P53778)
[18] = biological target: MAPKAPK2 (human) (UniProt P49137)
[19] = biological target: MELK (human) (UniProt Q14680)
[20] = biological target: NTRK1 (human) (UniProt P04629)
[21] = biological target: PBK (human) (UniProt Q96KB5)
[22] = biological target: PIM3 (human) (UniProt Q86V86)
[23] = biological target: PTK2B (human) (UniProt Q14289)
[24] = biological target: RPS6KA4 KD1 KD2 (human) (UniProt O75676)
[25] = biological target: SGK3 (human) (UniProt Q96BR1)
[26] = biological target: SIK2 (human) (UniProt Q9H0K1)
[27] = biological target: SRC (human) (UniProt P12931)
[28] = biological target: SRPK3 (human) (UniProt Q9UPE1)
[29] = biological target: STK4 (human) (UniProt Q13043)
[30] = biological target: TAOK2 (human) (UniProt Q9UL54)
[31] = biological target: TSSK1B (human) (UniProt Q9BXA7)
[32] = biological target: WNK2 (human) (UniProt Q9Y3S1)
[33] = biological target: WNK3 (human) (UniProt Q9BYP7)

HIPK1 (human), sequence (Q86Z02 whole entry, looked up): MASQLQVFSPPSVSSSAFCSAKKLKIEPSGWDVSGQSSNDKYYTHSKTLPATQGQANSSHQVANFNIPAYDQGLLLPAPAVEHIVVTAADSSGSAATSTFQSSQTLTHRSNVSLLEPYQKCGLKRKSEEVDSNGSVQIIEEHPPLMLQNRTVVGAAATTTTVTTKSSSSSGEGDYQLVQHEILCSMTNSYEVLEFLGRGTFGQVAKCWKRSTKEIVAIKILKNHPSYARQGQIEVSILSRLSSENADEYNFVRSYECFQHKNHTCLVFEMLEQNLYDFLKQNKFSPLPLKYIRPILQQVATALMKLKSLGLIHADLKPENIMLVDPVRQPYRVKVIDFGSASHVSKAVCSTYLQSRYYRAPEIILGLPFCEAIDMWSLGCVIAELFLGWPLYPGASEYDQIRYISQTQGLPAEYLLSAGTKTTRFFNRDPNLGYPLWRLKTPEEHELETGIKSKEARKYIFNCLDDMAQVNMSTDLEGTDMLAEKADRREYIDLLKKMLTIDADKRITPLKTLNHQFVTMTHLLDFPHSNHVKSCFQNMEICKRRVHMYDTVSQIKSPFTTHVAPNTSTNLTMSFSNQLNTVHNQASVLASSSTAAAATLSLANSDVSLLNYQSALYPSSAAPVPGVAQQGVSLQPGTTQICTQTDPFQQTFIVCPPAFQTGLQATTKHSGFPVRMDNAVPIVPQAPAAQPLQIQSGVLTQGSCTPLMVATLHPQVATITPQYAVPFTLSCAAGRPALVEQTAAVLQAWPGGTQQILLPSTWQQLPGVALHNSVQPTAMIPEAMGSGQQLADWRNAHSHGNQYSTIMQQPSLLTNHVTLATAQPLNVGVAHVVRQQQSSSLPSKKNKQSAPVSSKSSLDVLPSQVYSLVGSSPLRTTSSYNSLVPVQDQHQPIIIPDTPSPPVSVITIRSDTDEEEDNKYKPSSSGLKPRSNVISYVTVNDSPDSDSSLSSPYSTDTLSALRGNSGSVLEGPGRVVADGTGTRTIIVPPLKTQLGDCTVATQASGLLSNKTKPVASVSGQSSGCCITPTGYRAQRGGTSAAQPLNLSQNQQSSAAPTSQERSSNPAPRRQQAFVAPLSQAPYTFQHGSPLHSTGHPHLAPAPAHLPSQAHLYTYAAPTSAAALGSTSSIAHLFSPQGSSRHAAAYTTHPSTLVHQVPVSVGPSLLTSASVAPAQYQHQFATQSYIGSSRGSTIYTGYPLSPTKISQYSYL
NTRK1 (human), sequence (P04629 whole entry, looked up): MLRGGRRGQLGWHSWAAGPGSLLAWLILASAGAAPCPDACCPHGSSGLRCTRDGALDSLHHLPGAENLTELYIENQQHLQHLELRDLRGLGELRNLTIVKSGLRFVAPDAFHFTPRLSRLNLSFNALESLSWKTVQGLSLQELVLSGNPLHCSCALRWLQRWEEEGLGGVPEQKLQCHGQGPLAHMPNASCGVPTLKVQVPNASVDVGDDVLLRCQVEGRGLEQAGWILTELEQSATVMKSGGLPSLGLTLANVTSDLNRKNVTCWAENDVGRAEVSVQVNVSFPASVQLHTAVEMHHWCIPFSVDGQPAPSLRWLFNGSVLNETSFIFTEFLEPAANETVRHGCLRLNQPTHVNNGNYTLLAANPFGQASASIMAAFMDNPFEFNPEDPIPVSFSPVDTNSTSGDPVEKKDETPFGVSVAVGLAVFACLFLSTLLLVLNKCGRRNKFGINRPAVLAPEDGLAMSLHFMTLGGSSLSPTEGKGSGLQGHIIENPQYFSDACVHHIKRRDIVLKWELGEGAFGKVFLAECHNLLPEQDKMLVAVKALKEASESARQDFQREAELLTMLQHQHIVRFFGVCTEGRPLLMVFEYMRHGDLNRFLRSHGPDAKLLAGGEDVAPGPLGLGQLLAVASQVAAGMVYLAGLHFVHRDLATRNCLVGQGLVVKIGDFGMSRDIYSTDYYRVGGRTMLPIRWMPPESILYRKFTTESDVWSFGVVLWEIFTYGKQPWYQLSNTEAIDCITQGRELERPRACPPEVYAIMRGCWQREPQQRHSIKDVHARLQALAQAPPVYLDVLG
RPS6KA4 KD1 KD2 (human), sequence (O75676 whole entry, looked up): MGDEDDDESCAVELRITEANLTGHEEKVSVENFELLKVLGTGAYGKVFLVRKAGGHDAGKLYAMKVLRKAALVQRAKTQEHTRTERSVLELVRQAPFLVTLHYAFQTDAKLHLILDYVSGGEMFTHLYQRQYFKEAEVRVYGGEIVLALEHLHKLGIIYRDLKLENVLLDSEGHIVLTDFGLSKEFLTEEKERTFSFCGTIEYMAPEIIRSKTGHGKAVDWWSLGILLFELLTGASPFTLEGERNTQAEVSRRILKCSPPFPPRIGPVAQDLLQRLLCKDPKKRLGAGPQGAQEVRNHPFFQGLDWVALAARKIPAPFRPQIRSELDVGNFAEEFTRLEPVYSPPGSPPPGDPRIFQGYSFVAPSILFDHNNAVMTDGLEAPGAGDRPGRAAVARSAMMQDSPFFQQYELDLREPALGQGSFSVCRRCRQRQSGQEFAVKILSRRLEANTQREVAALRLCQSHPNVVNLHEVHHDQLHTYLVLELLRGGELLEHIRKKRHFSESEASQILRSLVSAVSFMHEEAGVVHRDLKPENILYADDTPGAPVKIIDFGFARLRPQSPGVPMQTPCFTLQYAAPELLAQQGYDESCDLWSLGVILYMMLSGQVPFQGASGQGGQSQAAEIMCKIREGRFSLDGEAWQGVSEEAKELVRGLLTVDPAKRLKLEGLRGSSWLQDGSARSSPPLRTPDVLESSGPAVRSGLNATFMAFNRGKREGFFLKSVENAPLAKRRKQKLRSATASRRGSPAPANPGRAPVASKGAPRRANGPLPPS
STK4 (human), sequence (Q13043 whole entry, looked up): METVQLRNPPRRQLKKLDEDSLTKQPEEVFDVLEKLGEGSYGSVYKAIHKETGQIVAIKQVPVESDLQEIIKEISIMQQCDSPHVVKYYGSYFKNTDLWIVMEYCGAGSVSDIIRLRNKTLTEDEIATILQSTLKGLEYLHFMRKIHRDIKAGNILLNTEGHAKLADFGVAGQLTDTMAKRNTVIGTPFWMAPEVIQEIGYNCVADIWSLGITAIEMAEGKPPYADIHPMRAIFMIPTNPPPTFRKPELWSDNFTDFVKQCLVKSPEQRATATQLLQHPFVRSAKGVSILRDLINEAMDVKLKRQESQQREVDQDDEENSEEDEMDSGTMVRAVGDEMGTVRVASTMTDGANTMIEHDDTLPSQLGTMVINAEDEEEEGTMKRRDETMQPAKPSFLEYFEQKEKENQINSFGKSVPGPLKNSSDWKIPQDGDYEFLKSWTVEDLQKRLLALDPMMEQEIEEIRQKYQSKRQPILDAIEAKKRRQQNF
JAK3 JH1 JH2 (human), sequence (P52333 whole entry, looked up): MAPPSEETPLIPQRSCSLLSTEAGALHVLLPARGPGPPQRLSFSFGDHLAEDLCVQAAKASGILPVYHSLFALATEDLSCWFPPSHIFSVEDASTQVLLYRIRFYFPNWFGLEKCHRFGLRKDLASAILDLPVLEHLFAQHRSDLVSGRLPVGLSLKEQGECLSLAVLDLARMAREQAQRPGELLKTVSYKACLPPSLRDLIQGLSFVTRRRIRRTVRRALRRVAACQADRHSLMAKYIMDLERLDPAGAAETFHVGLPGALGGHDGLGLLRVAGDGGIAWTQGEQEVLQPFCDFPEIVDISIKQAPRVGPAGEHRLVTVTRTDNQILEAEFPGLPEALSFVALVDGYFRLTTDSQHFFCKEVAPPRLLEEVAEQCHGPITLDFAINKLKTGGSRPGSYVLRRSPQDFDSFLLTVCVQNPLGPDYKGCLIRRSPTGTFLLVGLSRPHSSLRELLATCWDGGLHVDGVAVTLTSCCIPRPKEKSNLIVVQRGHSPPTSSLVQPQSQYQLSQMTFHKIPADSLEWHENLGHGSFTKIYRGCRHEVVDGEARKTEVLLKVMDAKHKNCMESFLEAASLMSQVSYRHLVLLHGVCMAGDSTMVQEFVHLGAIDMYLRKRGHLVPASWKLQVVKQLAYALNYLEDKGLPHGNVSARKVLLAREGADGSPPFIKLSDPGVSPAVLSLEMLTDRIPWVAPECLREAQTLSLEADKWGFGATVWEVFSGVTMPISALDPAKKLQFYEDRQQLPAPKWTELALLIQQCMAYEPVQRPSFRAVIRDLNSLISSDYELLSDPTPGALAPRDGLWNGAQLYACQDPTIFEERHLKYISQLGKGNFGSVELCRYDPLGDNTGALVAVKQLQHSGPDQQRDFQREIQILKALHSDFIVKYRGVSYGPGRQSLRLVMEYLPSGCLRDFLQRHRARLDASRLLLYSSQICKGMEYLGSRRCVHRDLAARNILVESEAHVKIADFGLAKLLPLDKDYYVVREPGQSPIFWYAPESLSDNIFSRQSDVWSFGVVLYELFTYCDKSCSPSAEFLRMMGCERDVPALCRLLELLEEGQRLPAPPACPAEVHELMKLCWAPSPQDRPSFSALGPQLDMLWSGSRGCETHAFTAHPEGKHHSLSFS
AURKB (human), sequence (Q96GD4 whole entry, looked up): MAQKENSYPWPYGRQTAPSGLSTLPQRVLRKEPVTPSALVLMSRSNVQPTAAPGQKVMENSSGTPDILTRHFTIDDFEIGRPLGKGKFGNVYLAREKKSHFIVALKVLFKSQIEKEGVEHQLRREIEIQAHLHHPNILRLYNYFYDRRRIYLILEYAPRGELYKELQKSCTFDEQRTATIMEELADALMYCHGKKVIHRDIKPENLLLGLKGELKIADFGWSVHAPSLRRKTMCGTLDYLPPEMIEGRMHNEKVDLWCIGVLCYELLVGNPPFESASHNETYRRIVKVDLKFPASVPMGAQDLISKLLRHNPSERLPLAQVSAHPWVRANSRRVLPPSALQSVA
CSNK1A1 (human), sequence (P48729 whole entry, looked up): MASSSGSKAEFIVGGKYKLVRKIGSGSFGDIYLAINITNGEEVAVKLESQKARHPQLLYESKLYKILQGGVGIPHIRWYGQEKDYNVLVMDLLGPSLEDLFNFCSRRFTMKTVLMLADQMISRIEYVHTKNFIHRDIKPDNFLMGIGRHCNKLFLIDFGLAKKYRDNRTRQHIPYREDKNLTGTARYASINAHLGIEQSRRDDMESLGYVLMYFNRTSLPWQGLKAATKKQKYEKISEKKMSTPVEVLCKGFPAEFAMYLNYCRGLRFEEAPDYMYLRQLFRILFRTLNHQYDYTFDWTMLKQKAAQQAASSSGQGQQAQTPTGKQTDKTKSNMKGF

Cc1ccc(Nc2nccc(N(C)c3ccc4c(C)n(C)nc4c3)n2)cc1S(N)(=O)=O
inhibition ([1]; compound 0.02 µM): 2.7%
inhibition ([1]; compound 0.2 µM): 12.5%
inhibition ([2]; compound 0.02 µM): -2.2%
inhibition ([2]; compound 0.2 µM): 0.4%
inhibition ([3]; compound 0.02 µM): -2.8%
inhibition ([3]; compound 0.2 µM): -1.2%
inhibition ([4]; compound 0.02 µM): -2.5%
inhibition ([4]; compound 0.2 µM): 5.1%
inhibition ([5]; compound 0.02 µM): -1.2%
inhibition ([5]; compound 0.2 µM): 0.9%
inhibition ([6]; compound 0.02 µM): -4.9%
inhibition ([6]; compound 0.2 µM): -7%
inhibition ([7]; compound 0.02 µM): 2.9%
inhibition ([7]; compound 0.2 µM): 4.7%
inhibition ([8]; compound 0.02 µM): -1.3%
inhibition ([8]; compound 0.2 µM): 15.3%
inhibition ([9]; compound 0.02 µM): 29%
inhibition ([9]; compound 0.2 µM): 82.6%
inhibition ([10]; compound 0.02 µM): 21.3%
inhibition ([10]; compound 0.2 µM): 68.5%
inhibition ([11]; compound 0.02 µM): 2.6%
inhibition ([11]; compound 0.2 µM): 7.3%
inhibition ([12]; compound 0.02 µM): 7%
inhibition ([12]; compound 0.2 µM): 2%
inhibition ([13]; compound 0.02 µM): 4.8%
inhibition ([13]; compound 0.2 µM): 11.4%
inhibition ([14]; compound 0.02 µM): 4.1%
inhibition ([14]; compound 0.2 µM): 7.7%
inhibition [15]: 83%
inhibition ([16]; compound 0.02 µM): -10.8%
inhibition ([16]; compound 0.2 µM): -6.6%
inhibition ([17]; compound 0.02 µM): -6.3%
inhibition ([17]; compound 0.2 µM): -2.7%
inhibition ([18]; compound 0.02 µM): 5.5%
inhibition ([18]; compound 0.2 µM): 1.5%
inhibition ([19]; compound 0.02 µM): 8.1%
inhibition ([19]; compound 0.2 µM): 12.4%
inhibition ([20]; compound 0.02 µM): 7%
inhibition ([20]; compound 0.2 µM): 16.7%
inhibition ([21]; compound 0.02 µM): -3.9%
inhibition ([21]; compound 0.2 µM): -9.3%
inhibition ([22]; compound 0.02 µM): -3.4%
inhibition ([22]; compound 0.2 µM): -4.2%
inhibition ([23]; compound 0.02 µM): -0.4%
inhibition ([23]; compound 0.2 µM): 9.7%
inhibition ([24]; compound 0.02 µM): -2.4%
inhibition ([24]; compound 0.2 µM): 3.7%
inhibition ([25]; compound 0.02 µM): -0.2%
inhibition ([25]; compound 0.2 µM): -2.7%
inhibition ([26]; compound 0.02 µM): 1.3%
inhibition ([26]; compound 0.2 µM): 5.7%
inhibition ([27]; compound 0.02 µM): 8.4%
inhibition ([27]; compound 0.2 µM): 42.7%
inhibition ([28]; compound 0.02 µM): -1.1%
inhibition ([28]; compound 0.2 µM): 2.1%
inhibition ([29]; compound 0.02 µM): -4.7%
inhibition ([29]; compound 0.2 µM): -5.1%
inhibition ([30]; compound 0.02 µM): 3.7%
inhibition ([30]; compound 0.2 µM): 22.3%
inhibition ([31]; compound 0.02 µM): -1.1%
inhibition ([31]; compound 0.2 µM): -1.7%
inhibition ([32]; compound 0.02 µM): 1%
inhibition ([32]; compound 0.2 µM): 4.3%
inhibition ([33]; compound 0.02 µM): -0.8%
inhibition ([33]; compound 0.2 µM): 3.2%
